Several values for one entry are separate records, joined by “and”; a condition that tells them apart may be missing. Equal values may be shown once.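 How tested: cells in 96-well plates exposed to compound for 48 hours at five concentrations. Here, GI50 denotes the concentration required for 50% inhibition of growth. TGI: total growth inhibition.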 A value given as a limit tells only on which side of the number the result lay.

Here are results for eleven compounds from PubChem BioAssay (NCI).

Test systems include A549 NSCLC; HCT-15 colon; HL-60(TB) leukemia; K-562 leukemia; MDA-MB-435; OVCAR-5 ovarian; PC-3 prostate; SF-539 CNS; SW-620 colon; T-47D breast.
Holding throughout (experiment): inhibition of tumour cell growth, NCI panel, 48 h

Take `CN(C)c1ccc(/C=C\c2ccnc3ccccc23)cc1`: the GI50 is 5.83 µM with A549 NSCLC; 4.42 µM in the assay with HCT-15 colon; above 20.2 µM with HL-60(TB) leukemia; above 21.1 µM with K-562 leukemia; 1.47 µM with MDA-MB-435; 12.7 µM in the assay with OVCAR-5 ovarian. The GI50 is 17.9 µM in the assay with PC-3 prostate, 5.17 µM in the assay on SF-539 CNS, 5.78 µM in the assay with SW-620 colon and 2.48 µM in the assay with T-47D breast. For the same compound, the TGI is above 100 µM in the assay with A549 NSCLC; above 100 µM in the assay on HCT-15 colon; above 86.8 µM with HL-60(TB) leukemia; above 100 µM with K-562 leukemia; above 30.5 µM in the assay with MDA-MB-435; above 100 µM with OVCAR-5 ovarian. Further, the TGI in the assay on PC-3 prostate is above 100 µM; in the assay on SF-539 CNS it was 25.8 µM; in the assay on SW-620 colon it was above 96 µM; in the assay on T-47D breast, above 100 µM.

Regarding `c1ccc(-c2oc(-c3ccccc3)c(CN3CCCCC3)c2CN2CCCCC2)cc1`, the GI50 was 5.55 µM with A549 NSCLC; 1.79 µM in the assay with HCT-15 colon; 1.96 µM with HL-60(TB) leukemia; 1.94 µM in the assay with K-562 leukemia; 2.73 µM in the assay on MDA-MB-435; 1.82 µM in the assay on OVCAR-5 ovarian. The GI50 in the assay on PC-3 prostate was 2.34 µM; in the assay with SF-539 CNS it was 1.68 µM; with SW-620 colon, 3.05 µM; with T-47D breast it was 2.71 µM. Further, the TGI in the assay with A549 NSCLC is 24.8 µM; with HCT-15 colon, 10.3 µM; with HL-60(TB) leukemia, 5.28 µM; in the assay on K-562 leukemia, 6.51 µM; in the assay on MDA-MB-435, 10.6 µM; in the assay on OVCAR-5 ovarian it was 8.85 µM. In addition, the TGI stood at 7.73 µM with PC-3 prostate, 3.47 µM in the assay with SF-539 CNS, 16.4 µM with SW-620 colon and 11.7 µM in the assay with T-47D breast.

As for `CC1CC2C3CCC4=CC(=O)C=CC4(C)C3(F)C(O)CC2(C)C1(O)C(=O)COP(=O)(O)O` (centres undefined), the GI50 in the assay with A549 NSCLC, in the assay on HCT-15 colon, with HL-60(TB) leukemia, in the assay on K-562 leukemia, in the assay on MDA-MB-435 and in the assay on OVCAR-5 ovarian was above 500 µM throughout. In addition, the GI50 with PC-3 prostate, in the assay on SF-539 CNS, in the assay with SW-620 colon and in the assay on T-47D breast was above 500 µM throughout. The TGI in the assay on A549 NSCLC, in the assay with HCT-15 colon, in the assay with HL-60(TB) leukemia, in the assay on K-562 leukemia, in the assay on MDA-MB-435 and in the assay on OVCAR-5 ovarian was above 500 µM each time. Besides, the TGI in the assay on PC-3 prostate, in the assay on SF-539 CNS, in the assay with SW-620 colon and in the assay with T-47D breast was above 500 µM in each case.

Turning to `CSc1ccc(C2=C(c3ccccc3)C(=O)OC2)cc1`, the GI50 in the assay with A549 NSCLC was 0.677 µM; in the assay with HCT-15 colon, 0.202 µM; in the assay with HL-60(TB) leukemia, 0.35 µM; with K-562 leukemia, 0.101 µM; in the assay with MDA-MB-435, 0.0923 µM; in the assay on OVCAR-5 ovarian, 5.18 µM. For the same compound, the GI50 was 0.884 µM in the assay with PC-3 prostate, 1.49 µM in the assay with SF-539 CNS, 1 µM in the assay with SW-620 colon and 1.22 µM with T-47D breast. The TGI is above 100 µM in the assay with A549 NSCLC; 3.46 µM with HCT-15 colon; 2.07 µM in the assay with HL-60(TB) leukemia; above 100 µM with K-562 leukemia; 0.364 µM with MDA-MB-435; above 100 µM in the assay on OVCAR-5 ovarian. Besides, the TGI with PC-3 prostate is 21.1 µM; in the assay with SF-539 CNS, 12.3 µM; in the assay with SW-620 colon it was above 20.1 µM; in the assay with T-47D breast, above 100 µM.

As for `COc1ccc(C(O)c2cc3c(N)c(C(=O)Nc4ccc(Cl)cc4)sc3nc2C)cc1` (centres undefined), the GI50 was 3.53 µM with A549 NSCLC; 0.719 µM with HCT-15 colon; 1.91 µM with HL-60(TB) leukemia; 0.694 µM with K-562 leukemia; 0.317 µM with MDA-MB-435; 3.97 µM with OVCAR-5 ovarian. The GI50 in the assay with PC-3 prostate is 3.27 µM; with SF-539 CNS, 2.4 µM; in the assay on SW-620 colon, 2.62 µM; with T-47D breast, 3.29 µM. For the same compound, the TGI in the assay on A549 NSCLC is 14.9 µM; in the assay on HCT-15 colon, 12.9 µM; in the assay with HL-60(TB) leukemia, 9.63 µM; in the assay with K-562 leukemia it was above 100 µM; in the assay with MDA-MB-435, 1.17 µM; with OVCAR-5 ovarian, 25.5 µM. The TGI came out at 22.2 µM in the assay on PC-3 prostate, 8.08 µM with SF-539 CNS, 37.6 µM in the assay on SW-620 colon and 50.5 µM in the assay with T-47D breast.

As for `O=C1NC(=NCCc2ccc(F)cc2)S/C1=C\c1ccc2ncccc2c1`, the GI50 with A549 NSCLC, in the assay with HCT-15 colon, in the assay with HL-60(TB) leukemia, with K-562 leukemia, with MDA-MB-435 and in the assay on OVCAR-5 ovarian was above 25 µM in each case. The GI50 in the assay on PC-3 prostate is above 25 µM; in the assay on SF-539 CNS it was above 25 µM; in the assay with SW-620 colon, above 23.3 µM; with T-47D breast, above 25 µM. Besides, the TGI in the assay on A549 NSCLC, in the assay on HCT-15 colon, in the assay on HL-60(TB) leukemia, in the assay with K-562 leukemia, in the assay on MDA-MB-435 and in the assay on OVCAR-5 ovarian was above 25 µM in each case. Further, the TGI in the assay on PC-3 prostate, in the assay on SF-539 CNS, with SW-620 colon and in the assay with T-47D breast was above 25 µM throughout.

Turning to `CCOC(=O)[C@@H](C)C[C@H](Cc1ccccc1)NC(=O)c1csc([C@@H](C[C@H](C(C)C)N(C)C(=O)[C@@H](NC(=O)[C@H]2CCCCN2C)C(C)(C)CC)OC(C)=O)n1`, the GI50 in the assay with A549 NSCLC is below 0.00167 µM; with HCT-15 colon it was below 0.00167 µM; in the assay on HL-60(TB) leukemia, below 0.00167 µM; in the assay with K-562 leukemia, below 0.00167 µM; with MDA-MB-435, below 0.00167 µM; with OVCAR-5 ovarian it was 0.0037 µM. In addition, the GI50 in the assay on PC-3 prostate was below 0.00167 µM; in the assay on SF-539 CNS, 0.00226 µM; with SW-620 colon, below 0.00167 µM; in the assay with T-47D breast, below 0.00167 µM. Further, the TGI with A549 NSCLC is above 16.7 µM; in the assay on HCT-15 colon, above 5.93 µM; in the assay with HL-60(TB) leukemia, 0.0034 µM; with K-562 leukemia, above 16.7 µM; in the assay on MDA-MB-435, below 0.00167 µM; in the assay with OVCAR-5 ovarian, above 16.7 µM. Also, the TGI is above 16.7 µM in the assay on PC-3 prostate, 0.00791 µM in the assay with SF-539 CNS, above 16.7 µM in the assay on SW-620 colon and above 16.7 µM in the assay with T-47D breast.

In the case of `CC(C)=CCc1cc2c(cc1O)C1=C(C(=O)C3=C(C1=O)S(=O)(=O)CCN3)C(C=C(C)C)O2` (centres undefined), the GI50 in the assay on A549 NSCLC was 2.23 µM; in the assay with HCT-15 colon, 1.77 µM; in the assay with HL-60(TB) leukemia it was 0.438 µM; in the assay on K-562 leukemia, 2.24 µM; in the assay on MDA-MB-435, 0.061 µM; in the assay on OVCAR-5 ovarian it was 2.73 µM. Moreover, the GI50 with PC-3 prostate was 1.6 µM; with SF-539 CNS, 1.96 µM; in the assay on SW-620 colon it was 0.554 µM; with T-47D breast it was 0.714 µM. The TGI is 5.59 µM with A549 NSCLC; 4.3 µM with HCT-15 colon; 1.11 µM with HL-60(TB) leukemia; 14.6 µM in the assay on K-562 leukemia; 0.227 µM in the assay on MDA-MB-435; 5.93 µM with OVCAR-5 ovarian. The TGI is 12.8 µM in the assay on PC-3 prostate, 4.02 µM in the assay with SF-539 CNS, 1.76 µM in the assay on SW-620 colon and 7.15 µM with T-47D breast.

For `COc1ccc2c(c1)OC(N)=C(C#N)C2c1cc(OC)c(OC)c(OC)c1` (centres undefined), the GI50 was 0.0401 µM with A549 NSCLC; 0.034 µM in the assay with HCT-15 colon; 0.0256 µM with HL-60(TB) leukemia; 0.0338 µM in the assay with K-562 leukemia; 0.0189 µM in the assay with MDA-MB-435; 0.059 µM in the assay with OVCAR-5 ovarian. For the same compound, the GI50 in the assay on PC-3 prostate is 0.0498 µM; in the assay on SF-539 CNS, 0.0316 µM; in the assay on SW-620 colon, 0.038 µM; in the assay with T-47D breast, above 100 µM. Further, the TGI is above 100 µM with A549 NSCLC; above 100 µM with HCT-15 colon; 0.068 µM in the assay with HL-60(TB) leukemia; above 100 µM in the assay with K-562 leukemia; above 100 µM in the assay on OVCAR-5 ovarian; above 100 µM in the assay on PC-3 prostate. The figures for the TGI in the assay on SF-539 CNS, with SW-620 colon and in the assay with T-47D breast were 31.8 µM, above 100 µM and above 100 µM, respectively.

With `NS(=O)(=O)c1ccc(Nc2cc(-c3ccc(O)c(F)c3)[nH]n2)cc1`, the GI50 in the assay with A549 NSCLC is above 25 µM; in the assay with HCT-15 colon, above 25 µM; in the assay with HL-60(TB) leukemia, above 25 µM; in the assay with K-562 leukemia it was above 25 µM; in the assay with MDA-MB-435 it was above 23.5 µM; in the assay on OVCAR-5 ovarian it was above 25 µM. The GI50 in the assay on PC-3 prostate was above 25 µM; with SF-539 CNS it was 13.5 µM; in the assay on SW-620 colon, above 25 µM; with T-47D breast it was above 16.6 µM. Besides, the TGI in the assay with A549 NSCLC, in the assay with HCT-15 colon, with HL-60(TB) leukemia, with K-562 leukemia, in the assay on MDA-MB-435 and in the assay on OVCAR-5 ovarian was above 25 µM in each case. For the same compound, the TGI in the assay on PC-3 prostate, with SF-539 CNS, in the assay with SW-620 colon and in the assay with T-47D breast was above 25 µM throughout.

Take `CC(=O)OCC1OC(n2c(=S)n(-c3ccc([N+](=O)[O-])cc3)c(=O)c3ccccc32)C(OC(C)=O)C(OC(C)=O)C1OC(C)=O` (centres undefined): the GI50 in the assay with A549 NSCLC is 23.1 µM and 32 µM; in the assay on HL-60(TB) leukemia, 4.13 µM and 25.2 µM; in the assay on K-562 leukemia, 10.7 µM and 27.2 µM; in the assay with OVCAR-5 ovarian, 32.2 µM and > 100 µM; in the assay on SW-620 colon, 18 µM and 30.4 µM. Further, the TGI is above 100 µM in the assay on A549 NSCLC; above 100 µM in the assay on HCT-15 colon; 29.4 µM and 59.1 µM with HL-60(TB) leukemia; above 100 µM in the assay on K-562 leukemia; above 100 µM with MDA-MB-435; above 100 µM in the assay on OVCAR-5 ovarian. The TGI was 39.9 µM in the assay with PC-3 prostate; 36 µM and 29.7 µM in the assay on SF-539 CNS; above 100 µM with SW-620 colon; 74.3 µM with T-47D breast.
